The values below come from article PMC11378298 (ACS Chemical Neuroscience, 2024).

The test system of data set [1] is BV-2 cell line. Nature of the data set: NO release in LPS-treated BV-2 cells (DAN fluorometric assay). It counts as cell-based, mouse. The following applies: compound 0.1, 1, 10 μM; LPS 100 ng/mL. How it is done:
Cell viability was determined by Presto Blue assay after 24 h. (B) Effect of compounds 11, 34, and 36 (0.1, 1, 10 μM) on NO-release (%) in LPS-treated (100 ng/mL) BV-2 cell line. NO-release was measured using a fluorometric assay with 2,3-diaminonaphthalene (DAN). (C, D) Effects of compounds 11 and 36 (0.1, 1, 10 μM) on IL-6 and TNF-α release in LPS-treated (100 ng/mL) BV-2 cell line. The IL-6 and TNF-α levels were measured using LANCE Ultra TR-FRET Detection Kit (PerkinElmer). Statistical analysis was performed using GraphPad Prism 9.0.0. All values are expressed as mean with SD. Differences among groups were evaluated by one-way ANOVA followed by posthoc analysis (Dunnett’s multiple comparison tests) vs. control group (LPS on BV-2 cells and okadaic acid on HT-22 cells) and were considered statistically significant if p < 0.05 (*p < 0.05, **p < 0.01, ***p < 0.001, and ****p < 0.0001).
An important role in the pathogenesis of AD has been attributed to neuroinflammation resulting from the activation of astrocytes and microglial cells.[55] These processes lead to increased production of proinflammatory cytokines such as TNF-α or IL-6 that activate processes, e.g., tau hyperphosphorylation, causing injury and cell death.[56] A standard model of neuroinflammation is based on lipopolysaccharide-stimulated BV-2 microglial cells. In this study, we used this model to evaluate the anti-inflammatory properties of compounds 11, 34, and 36.[57] Our evaluation focused on monitoring the levels of key inflammatory markers, including nitric oxide (NO, Figure 6B) and cytokines, TNF-α and IL-6 (Figure 6C,D).
The cells were pretreated with tested compounds for 1 h. […]
The NO level in the culture supernatants was measured using 2,3-diaminonaphthalene (DAN) reagent according to the method of Nussler et al.[88] After 15 min of incubation at room temperature, the fluorescence intensity (EX 360; EM 440 nm) was measured using a microplate reader POLARstar Omega, (BMG Labtech). The values of nitric oxide were calculated as a percentage of control (maximal response of LPS).

For data set [2], the target named is GSK-3β (Homo sapiens, UniProt P49841). Put plainly: biochemical. How it is done:
We evaluated the pharmacological properties of the compounds in vitro against GSK-3β using the GSK-3β Kinase Enzyme System followed by ADP-Glo bioluminescent assay.[50] The principle of the assay is to determine the amount of ADP formed from ATP in the kinase reaction. […] Additionally, compounds 11 and 36 in complex with GSK-3β were analyzed by the proteins’ melting temperature determination using Thermal Shift Assay (see Figure S1 in the SI).
The inhibitory activities of the tested compounds against the GSK-3β human recombinant kinase were measured using Promega’s GSK-3β Kinase Enzyme System (Promega; Madison, WI, USA), according to the provided manufacturer’s instruction, using the low-volume white polystyrene 384-well plates. The ADP-Glo Assay (Promega; Madison, WI, USA) was used for bioluminescent detection of the kinase activity. Tested compounds were prepared as 1 mM stock solutions in DMSO and diluted with the Kinase Assay Buffer before use (40 mM Tris, pH 7.5, enriched with 50 μM dithiothreitol; DTT) to obtain the desired compounds’ concentrations. The kinase enzyme, GSK-3β-substrate (derived from human muscle glycogen synthase 1), and ATP were also diluted in the assay buffer before use. At first, GSK-3β (10 ng per well) was incubated with the tested sample (10 μM in well) for 5 min. In the case of blank wells, the DMSO solution (1% in well) was used instead of the target samples’ solutions. After the incubation period, ATP (25 μM in well) and GSK-3β-substrate (0.2 μg/μL in well) were added to start the enzymatic reaction. The reaction mixture was kept at room temperature for 1 h, followed by the addition of the ADP-Glo reagent, to terminate the kinase reaction and deplete any remaining ATP. After the following 40 min—a second reagent (Kinase Detection Reagent) was applied to convert the obtained ADP to ATP and to generate light from the newly synthesized ATP using a luciferase/luciferin reaction. The mixture was kept for another 30 min at room temperature, then the luminescence was measured. Based on equation 100 – (S/B) × 100 (where S and B were the respective enzyme activities with and without the tested sample, respectively) the percent of inhibition of GSK-3β for each compound was calculated. […] Calculations were made using nonlinear regression (GraphPad Prism 9; GraphPad Software, San Diego, CA, USA) by plotting the residual enzyme activities against the applied inhibitor concentration. […] Each data point was collected in triplicate.

The nature of data set [3]: Cytotoxicity in BV-2 cells (PrestoBlue). The following applies: mouse, BV-2 microglial cells. How it is done:
(§1) The compounds were tested at 5 concentrations (0.1, 1, 10, 50, and 100 μM).
Mouse microglial cells (BV-2) were a generous gift from Professor Bozena Kaminska-Kaczmarek of the Laboratory of Molecular Neurobiology, Neurobiology Center, Nencki Institute of Experimental Biology, Polish Academy of Sciences, Warsaw, Poland. Cells were cultured in Dulbecco’s modified Eagle’s Medium-high glucose (DMEM, Glutamax Thermo Fisher) supplemented with 10% heat-inactivated fetal bovine serum (Thermo Fisher), 100 IU/mL penicillin (Merck) and 100 μg/mL streptomycin (Merck). Cells were cultured in flasks (area 175 cm^2, Nunc), and incubated at 37 °C, 5% CO2. To evaluate the level of NO, IL-6, and TNF-α and the effectiveness of the compounds tested, BV-2 microglia cells were cultured in a 96-well culture plate (5 × 10^4 cells per well, Falcon). For the measurement of cell viability and cell membrane damage, cells were placed in a 96-well culture plate (2 × 10^4 cells per well, Falcon). Before the tests, cells were grown for 24 h in the incubator (37 °C, 5% CO2).
(§2) Cell viability was evaluated using the PrestoBlue reagent (ThermoFisher), according to the manufacturer’s procedures.[87] Following 24 h of incubation with the tested molecule, PrestoBlue reagent was added to a microplate well in an amount equal to one-tenth of the remaining medium volume. The resulting mixture was incubated for 15 min at 37 °C, and the fluorescence intensity (EX 530 nm; EM 580 nm) was measured in the plate reader POLARstar Omega, (BMG Labtech).

Data set [4] deals with HT-22 cells. Put plainly: Cytotoxicity in HT-22 cells (PrestoBlue). The following applies: whole range of concentrations 0.1–100 μM. How it is done: as §1
(§3) Mouse Hippocampal Neuronal Cell Line (HT-22) was a generous gift from Dr Bartosz Pomierny of the Department of Biochemical Toxicology, Jagiellonian University Medical College, Krakow, Poland. Cells were cultured in Dulbecco’s modified Eagle’s Medium—high glucose (DMEM, Glutamax Thermo Fisher) supplemented with 10% heat-inactivated fetal bovine serum (Thermo Fisher), 100 IU/mL penicillin (Merck) and 100 μg/mL streptomycin (Merck). Cells were cultured in flasks (area 175 cm^2, Nunc), and incubated at 37 °C, 5% CO2. For the measurement of cell viability and neuroprotective effect against okadaic acid cells were placed in a 96-well culture plate (2 × 10^4 cells per well, Falcon). Before the tests, cells were grown for 24 h in the incubator (37 °C, 5% CO2).
as §2

Data set [5] is described as follows: Cytotoxicity in HT-22 cells (PrestoBlue). The following applies: mouse, HT-22 hippocampal neuronal cells. As for the experimental part:
as §1, §3, §2

Sequence of GSK-3β (P49841 whole entry): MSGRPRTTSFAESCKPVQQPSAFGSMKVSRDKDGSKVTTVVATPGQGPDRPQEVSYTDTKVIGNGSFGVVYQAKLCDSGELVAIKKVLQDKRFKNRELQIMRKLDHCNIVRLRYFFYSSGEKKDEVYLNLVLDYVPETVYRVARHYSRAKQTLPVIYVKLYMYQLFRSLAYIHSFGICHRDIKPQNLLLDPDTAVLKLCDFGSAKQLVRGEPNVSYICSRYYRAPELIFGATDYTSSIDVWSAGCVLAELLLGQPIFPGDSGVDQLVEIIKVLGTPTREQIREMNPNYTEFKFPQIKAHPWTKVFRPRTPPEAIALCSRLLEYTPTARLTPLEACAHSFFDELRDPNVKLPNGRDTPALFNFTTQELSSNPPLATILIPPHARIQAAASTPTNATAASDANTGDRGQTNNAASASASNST

As for `O=C(Nc1cc(-c2ccc(-c3ncon3)nc2)ccn1)C1CC1` [Compound 34, N-(6-(1,2,4-Oxadiazol-3-yl)-[3,4′-bipyridin]-2′-yl)cyclopropanecarboxamide], the “impact on NO release” value in data set [1] is listed as “did not show any impact”. The compound also showed a half-maximal inhibitory concentration (IC50) in data set [2] of 185 ± 3 nM. Besides, the figures for the IC50 at 24 h in data set [3] and in data set [5] were 39.2 ± 5.2 µM and > 100 µM, respectively. Further, in data set [4], the “cell viability in HT-22 cells” value is on record as “No significant decrease in cell viability”.
